Measured values reported in EP4772509A1, “KINESIN KIF18A INHIBITOR, AND APPLICATION THEREOF” (Shanghai Apeiron Therapeutics Company Limited, priority 2023, dated 2025).
Where two headings read alike, the source gives them in different places.

What was measured:
[1] = target: T1, Human KIF18A (amino acid sequence 1-417) (Homo sapiens, UniProt Q8NI77); assay: Enzymatic activity test (ADP-Glo, microtubule-stimulated ATPase); assay type: biochemical; conditions: 60 µg/mL microtubules, 25 µM ATP, 2.5 nM KIF18A protein, 120 min at ambient temperature, chemiluminescence
T1 construct: purchased Viva Biotech (Shanghai) Ltd
T1 sequence (Q8NI77 1-417): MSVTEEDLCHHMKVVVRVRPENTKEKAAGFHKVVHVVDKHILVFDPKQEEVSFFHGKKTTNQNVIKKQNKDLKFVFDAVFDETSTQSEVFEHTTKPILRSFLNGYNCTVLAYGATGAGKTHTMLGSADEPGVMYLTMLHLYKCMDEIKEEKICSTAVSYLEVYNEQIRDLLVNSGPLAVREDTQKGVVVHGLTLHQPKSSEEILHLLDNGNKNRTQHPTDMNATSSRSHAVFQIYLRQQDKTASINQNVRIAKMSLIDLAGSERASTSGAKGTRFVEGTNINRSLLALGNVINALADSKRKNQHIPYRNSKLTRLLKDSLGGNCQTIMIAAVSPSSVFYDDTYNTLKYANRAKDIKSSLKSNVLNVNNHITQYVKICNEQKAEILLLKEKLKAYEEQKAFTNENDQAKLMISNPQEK
Outline: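 Compounds (0-10 µM final, from 10 mM DMSO stock) were incubated 120 min at room temperature with 2.5 nM KIF18A 1-417, 25 µM ATP and 60 µg/mL microtubules. ATPase output was measured as ADP via ADP-Glo luminescence.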

[2] = tested on: OVCAR3 cells; assay: Cell proliferation activity test (CyQUANT Direct); assay type: cell-based; conditions: 3 days, 0.2% DMSO, CyQUANT fluorescence
Outline: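 OVCAR3 cells in RPMI-1640 with 10% FBS were seeded, then treated overnight later with compound at final 0–10 µM (0.2% DMSO) for 3 days at 37°C, 5% CO2. Proliferation was read as CyQUANT Direct fluorescence after 60 min at 37°C.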

[3] = tested on: HT29 cells; assay: CyQuant cell proliferation activity test; assay type: cell-based; conditions: HT29 at 2000 cells per well, 3 days, 0.2% DMSO, XLFIT
Outline: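 Cells seeded at 2000/well in RPMI-1640 with 10% FBS, left overnight, then exposed 3 days at 37 °C, 5% CO2 to a 9-point 3-fold series from 3000 nM (0.2% DMSO). CyQuant signal read after 1 h; IC50 from curve fit.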

Structure (SMILES)	IC50 ([1]; read-out: KIF18A IC50) [nM]	IC50 ([2]; Homo sapiens, OVCAR-3, 72 h) [µM]	IC50 ([3]; Homo sapiens, HT-29, 72 h) [µM]	IC50 [2] [µM]	IC50 ([3]; read-out: HT-29 IC50) [µM]	IC50 ([1]; KIF18A IC50 nM) [nM]
Cc1cc2nc(n1)N1CCC(F)(F)C(/C=C/CC3CCN(CC3)c3cc(NS(=O)(=O)CCO)c4c(c3C(=O)N2)CCC4(F)F)C1 (stereo not drawn) [Example 15, 2-Hydroxy-N-(1^4,1^4,5^1,5^1-tetrafluoro-2^1-methyl4-dioxo-5^2,5^1-dihydro-5^1H-3-aza-2(2,4)-pyrimidin-1(1,3),6(1,4)-dipiperidin-5(4,5)-benzofurancyclononane-8-en-5^7-yl)-ethane-1-sulfonamide]	358	0.024	0.046	–	–	–
Cc1cc2nc(n1)N1CCC(F)(F)C(C=CCC3CCN(CC3)c3cc(NS(=O)(=O)CCO)c4c(c3C(=O)N2)CNC4=O)C1 (stereo not drawn) [Example 16, N-(6^4,6^4-difluoro-5^6-methyl-2^1,3-dioxo-2^2,2^3-dihydro-2^1H-4-aza-2(5,4)-isoindole-5(4,2)-pyrimidin-1(1,4),6(1,3)-dipiperidineheterocyclonon-7-en-2^7-yl)-2-hydroxyethane-1-sulfonamide]	45	–	–	0.089	0.095	–
Cc1cc2nc(n1)N1CCC(F)(F)C(/C=C/CC3CCN(CC3)c3cc(NS(=O)(=O)CCO)c4c(c3C(=O)N2)CCNC4=O)C1 (stereo not drawn) [Example 17, N-(6^4,6^4-difluoro-5^6-methyl-2^1,3-dioxo-2^1,2^2,2^3,2^4-tetrahydro-4-aza-2(6,5)-isoquinoline-5(4,2)-pyrimidin-1(1,4),6(1,3)-dipiperidinylcyclononane-7-en-2^8-yl)-2-hydroxyethane-1-sulfonamide]	52	0.096	0.105	–	–	–
CCS(=O)(=O)Nc1cc2c(c3c1C(=O)CC3)C(=O)Nc1cc(C)nc(n1)N1CCC(F)(F)C(C=CCC3CCN2CC3)C1 (stereo not drawn) [Example 18, N-(1^4,1^4-difluoro-2^6-methyl-5^1,4-dioxo-5^2,5^3-dihydro-5^1H-3-aza-2(2,4)-pyrimidin-1(1,3),6(1,4)-dipiperidin-5(4,5)-indenoheterocyclonon-8-en-5^7-yl)-ethanesulfonamide]	67	–	–	0.038	0.041	–
Cc1cc2nc(n1)N1CCC(F)(F)C(C=CCC3CCN(CC3)c3cc(NS(C)(=O)=O)c4c(c3C(=O)N2)CCC4=O)C1 (stereo not drawn) [Example 19, N-(1^4,1^4-difluoro-2^6-methyl-5^1,4-dioxo-5^2,5^3-dihydro-5^1H-3-aza-2(2,4)-pyrimidin-1(1,3),6(1,4)-dipiperidin-5(4,5)-indenoheterocyclonon-8-en-5^7-yl)-methanesulfonamide]	73	–	–	0.052	0.048	–
Cc1cc2nc(n1)N1CCC(F)(F)C(/C=C\Cc3ccc(cc3)-c3cc(NS(=O)(=O)CCO)ccc3C(=O)N2)C1 (stereo not drawn) [Example 42, N-(1^4,1^4-difluoro-2^6-methyl-4-oxo-3-aza-2(2,4)-pyrimidin-1(1,3)-piperidin-5(1,2),6(1,4)-diphenylheterocyclonon-8-en-5^4-yl)-2-hydroxyethane-1-sulfonamide]	–	0.136	0.162	–	–	167
Cc1cc2nc(n1)N1CCC(F)(F)C(CCCc3ccc(cc3)-c3cc(NS(=O)(=O)CCO)ccc3C(=O)N2)C1 (stereo not drawn) [Example 44, N-((1^3S,Z)-1^4,1^4-difluoro-2^6-methyl-3^1H-2(2,4)-pyrimidin-1(1,3),5(1,4)-dipiperidin-3(4,1)-triazole-4(1,2)-benzylcyclooctyl-4^4-yl)-2-hydroxyethane-1-sulfonamide]	83	0.027	0.039	–	–	–
Cc1cc2nc(n1)N1CCC(F)(F)C(CCc3ccc(cc3)-c3cc(NS(=O)(=O)CCO)ccc3C(=O)N2)C1 (stereo not drawn) [Example 45, N-(2^4,2^4-difluoro-1^6-methyl-7-oxo-8-aza-1(2,4)-pyrimidin-2(1,3)-piperidin-5(1,4),6(1,2)-dibenzylcycloophene-6^5-yl)-2-hydroxyethane-1-sulfonamide]	114	0.077	0.1	–	–	–
Cc1cc2nc(n1)N1CCC(F)(F)C(CCCc3ccc(nc3)-c3cc(NS(=O)(=O)CCO)ccc3C(=O)N2)C1 (stereo not drawn) [Example 49, N-(1^4,1^4-difluoro-2^6-methyl-4-oxo-3-aza-2(2,4)-pyrimidin-6(2,5)-pyridin-1(1,3)-piperidin-5(1,2)-phenylheterocyclononane-5^4-yl)-2-hydroxyethane-1-sulfonamide]	187	1.08	1.31	–	–	–
Cc1cc2nc(n1)N1CCC(F)(F)C(CCCc3ccn(c(=O)c3)-c3cc(NS(=O)(=O)CCO)ccc3C(=O)N2)C1 (stereo not drawn) [Example 52, N-(1^4,1^4-difluoro-2^6-methyl-6^2,4-dioxo-6^1,6^2-dihydro-3-aza-2(2,4)-pyrimidin-6(1,4)-pyridin-1(1,3)-piperidin-5(1,2)-phenylheterocyclononane-5^4-yl)-2-hydroxyethane-1-sulfonamide]	555	> 3	> 3	–	–	–
COc1cc2nc(n1)N1CCC(F)(F)C(C=CCc3cccc(c3)-c3cc(NS(=O)(=O)CCO)ccc3C(=O)N2)C1 (stereo not drawn) [Example 54, N-(1^4,1^4-difluoro-2^6-methoxy-4-oxo-3-aza-2(2,4)-pyrimidin-1(1,3)-piperidin-5(1,2),6(1,3)-diphenylheterocyclonon-8-en-5^4-yl)-2-hydroxyethane-1-sulfonamide]	–	0.867	> 3	–	–	1560
Cc1cc2nc(n1)N1CCC(F)(F)C(C=CCc3ccc(cc3)-c3cc(NS(=O)(=O)CCO)ccc3C(=O)N2)C1 (stereo not drawn) [Example 55, N-(1^4,1^4-difluoro-2^6-methyl-4-oxo-3-aza-2(2,4)-pyrimidin-1(1,3)-piperidin-5(1,2),6(1,4)-diphenylheterocyclonon-8-en-5^4-yl)-2-hydroxyethane-1-sulfonamide]	88	0.03	0.029	–	–	–
Cc1cc2nc(n1)N1CCC(F)(F)C(C=CCC3=CC=C(S3)c3cc(NS(=O)(=O)CCO)ccc3C(=O)N2)C1 (stereo not drawn) [Example 57, N-(1^4,1^4-difluoro-2^6-methyl-4-oxo-3-aza-2(2,4)-pyrimidin-1(1,3)-piperidin-6(2,5)-thiophene-5(1,2)-benzoazacyclon-8-en-5^4-yl)-2-hydroxyethane-1-sulfonamide]	52	0.119	0.022	–	–	–
Cc1cc2nc(n1)N1CCC(F)(F)C(CCCC3=CC=C(S3)c3cc(NS(=O)(=O)CCO)ccc3C(=O)N2)C1 (stereo not drawn) [Example 58, N-(1^4,1^4-difluoro-2^6-methyl-4-oxo-3-aza-2(2,4)-pyrimidin-1(1,3)-piperidin-6(2,5)-thiophene-5(1,2)-benzoazacyclononane-5^4-yl)-2-hydroxyethane-1-sulfonamide]	67	0.116	0.042	–	–	–
Cc1cc2nc(n1)N1CCC(F)(F)[C@@H](CCCC3CCN(CC3)c3cc(NS(=O)(=O)CCO)ccc3-n3cc-2nn3)C1 [Example 85, N-((1^3S,Z)-1^4,1^4-difluoro-2^6-methyl-3^1H-2(2,4)-pyrimidin-1(1,3),5(1,4)-dipiperidin-3(4,1)-triazole-4(1,2)-benzylcyclooctyl-4^4-yl)-2-hydroxyethane-1-sulfonamide]	350	0.06	0.076	–	–	–
Cc1cc2nc(n1)N1CCC(F)(F)C(/C=C/CC3CCN(CC3)c3cc(NS(=O)(=O)CCO)c(C(=O)C4CC4)cc3-n3cc-2nn3)C1 (stereo not drawn) [Example 89, N-((3^4Z,7E)-4^5-(cyclopropanecarbonyl)-1^4,1^4-difluoro-2^6-methyl-3^1H-2(2,4)-pyrimidin-1(1,3),5(1,4)-dipiperidin-3(4,1) -triazole-4(1,2)-benzocyclooct-7-en-4^4-yl)-2-hydroxyethane-1-sulfonamide]	1700	0.171	0.173	–	–	–
CON(C)C(=O)c1cc2c(cc1NS(=O)(=O)CCO)N1CCC(C/C=C/C3CN(CCC3(F)F)c3nc(C)cc(n3)-c3cn-2nn3)CC1 (stereo not drawn) [Example 90, (3^4Z,7E)-1^4,1^4-difluoro-4^4-((2-hydroxyethyl)sulfonamido)-N-methoxy-N,2^6-dimethyl-3^1H-2(2,4)-pyrimidin-1(1,3),5(1,4) -dipiperidin-3(4,1)-triazole-4(1,2)-benzocyclooct-7-en-45-carboxamide]	274	0.136	0.333	–	–	–
